{"source": "paper PMC10052035", "about": "“Virtual Screening, Structural Analysis, and Formation Thermodynamics of Carbamazepine Cocrystals” (Pharmaceutics, 2023)", "key": {"[1]": {"assay_type": "physicochemical", "procedure": "The saturation shake-flask method was used to measure the aqueous solubility of the CBZ cocrystals in a pH 2.0 buffer solution at the eutectic point, where drug and cocrystal are in equilibrium with the solution. The eutectic point between the cocrystal and the drug was reached by suspending 80 mg of the cocrystal and 30 mg of CBZ in 2 mL of the buffer solution. The obtained suspension was stirred continuously for 72 h at 37.0 ± 0.1 °C. After equilibration, the final pH of the solution was measured. The suspension was diluted with the mobile phase after being filtered through a […] PTEF filter. Concentrations of compounds were analyzed by HPLC. The solid phases after the experiment were characterized by PXRD.\nThe column temperature was set to 40 °C."}, "[2]": {"assay": "Solubility of cocrystals and their constituents in organic solvents (shake-flask, HPLC)", "conditions": "for Ccc,3AcAmBA∙10^2, coformer concentration in equilibrium with cocrystal / Ccc,CBZ∙10^2, CBZ concentration in equilibrium with cocrystal: methanol; for solubility at 48 h: organic solvent or mixture, thermodynamic from solid", "procedure": "For the [CBZ + 3AcAmBA] (1:1) cocrystal, methanol was used. For [CBZ + 4AcAmBA] (1:1), all the experiments were performed in acetonitrile. An excess of the solid was placed in an Eppendorf tube, and 2 mL of solvent was added. The resulting suspension was shaken in a ThermoMixer C (Eppendorf, Hamburg, Germany) at 800 rpm for 48 h at the specified temperature. Subsequently, the saturated solution was separated using a 0.22 μm PTEF filter, diluted, and analyzed using HPLC. The solid phases after the experiment were collected and characterized by PXRD. Each experiment was repeated three times.\nThe HPLC was performed on an LC-20 AD Shimadzu Prominence model (Shimadzu, Kyoto, Japan) equipped with a PDA detector and a Luna C-18 column (150 mm × 4.6 mm i.d., 5 μm particle size, and 100 Å pore size). The column temperature was set to 40 °C. To achieve the proper separation of the cocrystal components, different ratios of the mobile phase, consisting of acetonitrile and a 0.1% aqueous solution of trifluoroacetic acid (35:65 v/v), were used. The flow rate was 1.0 mL·min^−1, and the injection volume was 20 μL. The UV detection of carbamazepine, 2-acetamidobenzoic acid, 3-acetamidobenzoic acid, and 4-acetamidobenzoic acid was carried out at the wavelengths of 285 nm, 249 nm, 220 nm, and 266 nm, respectively."}, "[3]": {"assay": "Cocrystal formation thermodynamics from solubility data (Kf, ΔformG, ΔformH, ΔformS)", "assay_type": "physicochemical", "conditions": "for ΔformH: van't Hoff, 293.15-313.15 K", "source_text": "It is known that the relative stability of a cocrystal with respect to a physical mixture of the parent constituents at a given temperature can be quantitatively expressed in terms of the free-energy change, ΔformG, of the cocrystallization reaction. Analyzing the temperature dependence of the Gibbs formation energy can provide further information on the enthalpy and entropy contributions to the driving force of the process as well as help to estimate the thermodynamic transition temperature, which determines the stability domains of a cocrystal and its individual constituents. The experimental assessment of ΔformG is based on solubility data for the starting molecules and the corresponding cocrystal in the same solvent at a predetermined temperature using the equation below:(3) ΔformG=−RTlnap,Ax×ap,By/acc,Ax×acc,By=−RTlnap,Ax×ap,By/Ksp=−RTlnKf, where ap,A and ap,B represent the activities of pure A and B compounds in a saturated solution; acc,A and acc,B are the activities of the cocrystal components in a solution, in equilibrium with pure cocrystal; Ksp is the solubility product of a cocrystal; T is the temperature; x and y are the stoichiometric coefficients; and Kf is an equilibrium constant at the experimental temperature.\nUsing the van’t Hoff expression, the enthalpy of the cocrystallization process, ΔformH, may be estimated by evaluating the Kf values at various temperatures (assuming that ΔformH is a constant within the selected temperature range):(4) dlnKf/d(1/T)=−ΔformH/R\nThe entropy of cocrystal formation, ΔformS, can be estimated from (5) ΔformS=ΔformH−ΔformG/T\nEven though the activities in Equation (3) are usually approximated by the corresponding molar concentration while neglecting the activity coefficients, a more valid approximation implies that the activity coefficients for the two solute species are constant along the cocrystal solubility line and equal to the activity coefficients of the pure components in the saturated solutions in the same solvent and temperature. […] Table S5 contains the solubility values of CBZ, coformers, and the CBZ cocrystals with emodin, paeonol, nicotinamide, and glutaric acid in various organic solvents."}, "[4]": {"assay": "Preliminary solution stability (congruent/incongruent dissolution) in organic solvents, PXRD of residual phases", "assay_type": "physicochemical", "source_text": "The most convenient way to determine the solubility product of a cocrystal is to ensure that the solution and the cocrystal are at thermodynamic equilibrium, i.e., that the cocrystal is congruently soluble in the chosen solvent. In this work, acetonitrile was primarily utilized as a medium to carry out solubility experiments. […] (1:1) and [CBZ + 3AcAmBA] […] In the case of [CBZ + 3AcAmBA] (1:1), incongruent solubility of the cocrystal was expected given the high solubility ratio of the components in acetonitrile (Table S6). This is likely to result in an asymmetric ternary phase diagram with a narrow stability region for the [CBZ + 3AcAmBA] (1:1) cocrystal. […] It is reasonable to assume that the poor solution stability of the [CBZ + 2AcAmBA] (1:1) cocrystal is not due to the large solubility difference between CBZ and 2AcAmBA but rather because of the low intrinsic thermodynamic stability of the binary solid form caused by the lack of energy gain associated with cocrystal formation, which leads to a higher solubility in all solvents considered. […] (1:1) cocrystal compared to the parent pure components (~40 °C, Figure S2), implicitly corroborate this supposition. Since no suitable solvent for solubility studies of [CBZ + 2AcAmBA] (1:1) could be found, this system was not further explored. The [CBZ + 3AcAmBA]"}, "[5]": {"design": "method as in doi:10.1016/j.molliq.2021.118320", "conditions": "pH 2.0, 310.2 K; value belongs to the coformer of the cocrystal named in the row; ref [103]; cited from earlier work"}, "[6]": {"conditions": "298.2K, listed as [CBZ+3AcAmBA] (1:1)"}}}
{"smiles": "CC(=O)Nc1cccc(C(=O)O)c1.NC(=O)N1c2ccccc2C=Cc2ccccc21", "note": "[[CBZ + 3AcAmBA] (1:1)]", "values": [{"measurement": "Scc, solubility of the cocrystal", "setting": "[1]; pH 2", "value": "(1.30 ± 0.03)·10^−3 Mol·L^−1"}, {"measurement": "[CF]eu, eutectic concentration of coformer", "setting": "[1]; pH 2.0, 310.2 K, eutectic point", "value": "(1.75 ± 0.08)·10^−3 Mol·L^−1"}, {"measurement": "[CBZ]eu, eutectic concentration of CBZ", "setting": "[1]; pH 2.0, 310.2 K, eutectic point (drug and cocrystal in equilibrium with solution)", "value": "(9.8 ± 0.2)·10^−4 Mol·L^−1"}, {"measurement": "Keu, eutectic constant", "setting": "[1]; pH 2.0, 310.2 K, Keu = [CF]eu/[CBZ]eu", "value": "1.8 ± 0.1"}, {"measurement": "Ccc,3AcAmBA∙10^2, coformer concentration in equilibrium with cocrystal", "setting": "[2]; 293.15 K, value is C∙10^2", "value": "7.0±0.1", "unit": "mol/l"}, {"measurement": "Ccc,CBZ∙10^2, CBZ concentration in equilibrium with cocrystal", "setting": "[2]; 293.15 K, value is C∙10^2", "value": "7.00±0.06", "unit": "mol/l"}, {"measurement": "Ccc,3AcAmBA∙10^2, coformer concentration in equilibrium with cocrystal", "setting": "[2]; 298.15 K, value is C∙10^2", "value": "8.1±0.1", "unit": "mol/l"}, {"measurement": "Ccc,CBZ∙10^2, CBZ concentration in equilibrium with cocrystal", "setting": "[2]; 298.15 K, value is C∙10^2", "value": "8.20±0.10", "unit": "mol/l"}, {"measurement": "Ccc,3AcAmBA∙10^2, coformer concentration in equilibrium with cocrystal", "setting": "[2]; 303.15 K, value is C∙10^2", "value": "9.5±0.1", "unit": "mol/l"}, {"measurement": "Ccc,CBZ∙10^2, CBZ concentration in equilibrium with cocrystal", "setting": "[2]; 303.15 K, value is C∙10^2", "value": "9.50±0.08", "unit": "mol/l"}, {"measurement": "Ccc,3AcAmBA∙10^2, coformer concentration in equilibrium with cocrystal", "setting": "[2]; 308.15 K, value is C∙10^2", "value": "11.1±0.06", "unit": "mol/l"}, {"measurement": "Ccc,CBZ∙10^2, CBZ concentration in equilibrium with cocrystal", "setting": "[2]; 308.15 K, value is C∙10^2", "value": "11.00±0.08", "unit": "mol/l"}, {"measurement": "Ccc,3AcAmBA∙10^2, coformer concentration in equilibrium with cocrystal", "setting": "[2]; 313.15 K, value is C∙10^2", "value": "12.5±0.07", "unit": "mol/l"}, {"measurement": "Ccc,CBZ∙10^2, CBZ concentration in equilibrium with cocrystal", "setting": "[2]; 313.15 K, value is C∙10^2", "value": "12.10±0.08", "unit": "mol/l"}, {"measurement": "T·ΔformS", "setting": "[3]; 298.2K", "value": "-0.908 ± 0.12", "unit": "kcal/mol"}, {"measurement": "lnKf", "setting": "[3]; 298.2K", "value": "1.17 ± 0.02"}, {"measurement": "ΔformG", "setting": "[3]; 298.2K", "value": "-0.696 ± 0.012", "unit": "kcal/mol"}, {"measurement": "T·ΔformS", "setting": "[3]; [6]", "value": "-0.908 ± 0.12", "unit": "kcal/mol"}, {"measurement": "ΔformG", "setting": "[3]; [6]", "value": "-0.696 ± 0.012", "unit": "kcal/mol"}, {"measurement": "ΔformH", "setting": "[3]; 298.2K", "value": "-1.6 ± 0.12", "unit": "kcal/mol"}, {"measurement": "ΔformH", "setting": "[3]; [6]", "value": "-1.6 ± 0.12", "unit": "kcal/mol"}, {"measurement": "lnKf", "setting": "[3]; methanol, 293.15 K", "value": "1.20±0.02"}, {"measurement": "∆formG", "setting": "[3]; methanol, 293.15 K", "value": "-0.7 ± 0.012", "unit": "kcal/mol"}, {"measurement": "lnKf", "setting": "[3]; methanol, 298.15 K", "value": "1.17±0.02"}, {"measurement": "∆formG", "setting": "[3]; methanol, 298.15 K", "value": "-0.696 ± 0.012", "unit": "kcal/mol"}, {"measurement": "lnKf", "setting": "[3]; methanol, 303.15 K", "value": "1.12±0.02"}, {"measurement": "∆formG", "setting": "[3]; methanol, 303.15 K", "value": "-0.676 ± 0.012", "unit": "kcal/mol"}, {"measurement": "lnKf", "setting": "[3]; methanol, 308.15 K", "value": "1.06±0.015"}, {"measurement": "∆formG", "setting": "[3]; methanol, 308.15 K", "value": "-0.65 ± 0.0096", "unit": "kcal/mol"}, {"measurement": "lnKf", "setting": "[3]; methanol, 313.15 K", "value": "1.04±0.02"}, {"measurement": "∆formG", "setting": "[3]; methanol, 313.15 K", "value": "-0.643 ± 0.0072", "unit": "kcal/mol"}, {"measurement": "dissolution behaviour / solution stability", "setting": "[4]; acetonitrile", "value": "dissolved incongruently"}, {"measurement": "dissolution behaviour / solution stability", "setting": "[4]; methanol", "value": "dissolve congruently"}]}
{"smiles": "CC(=O)Nc1ccccc1C(=O)O", "note": "[Cocrystal 2AcAmBA, 2-acetamidobenzoic acid]", "values": [{"measurement": "solubility ratio Cp,CBZ/Cp,coformer", "setting": "[2]; Acetonitrile, Table S6", "value": 5.7}, {"measurement": "solubility at 48 h", "setting": "[2]; acetonitrile, 20 °C", "value": "25 ± 0.8", "unit": "mM"}, {"measurement": "S0(CF), intrinsic solubility of coformer", "setting": "[5]", "value": 11.5, "unit": "mM"}]}
{"smiles": "CC(=O)Nc1ccc(C(=O)O)cc1", "note": "[Cocrystal 4AcAmBA, 4-acetamidobenzoic acid]", "values": [{"measurement": "solubility ratio Cp,CBZ/Cp,coformer", "setting": "[2]; 48 h", "value": 14.1}, {"measurement": "solubility at 48 h", "setting": "[2]; acetonitrile, 20 °C", "value": "10.1 ± 0.1", "unit": "mM"}, {"measurement": "solubility at 48 h", "setting": "[2]; acetonitrile, 25 °C", "value": "11.45 ± 0.05", "unit": "mM"}, {"measurement": "solubility at 48 h", "setting": "[2]; acetonitrile, 30 °C", "value": "12.8 ± 0.07", "unit": "mM"}, {"measurement": "solubility at 48 h", "setting": "[2]; acetonitrile, 35 °C", "value": "14.73 ± 0.07", "unit": "mM"}, {"measurement": "solubility at 48 h", "setting": "[2]; acetonitrile, 40 °C", "value": "16.6 ± 0.3", "unit": "mM"}, {"measurement": "Cp∙10^2, solubility of pure component", "setting": "[2]; acetonitrile, 293.15 K, value is C∙10^2", "value": "1.010±0.010", "unit": "mol/l"}, {"measurement": "S0(CF), intrinsic solubility of coformer", "setting": "[5]", "value": 4.6, "unit": "mM"}]}
